From patent US20250257054A1, “SALT FORMS OF A 4H-PYRAN-4-ONE STRUCTURED CYP11 A1 INHIBITOR” (ORION CORPORATION, priority 2021, published 2025)
Where a name gives a salt, the structure may show the parent alone. One block for each compound: values may come before it.

Assays:
Assay type in all cases: physicochemical
[1] = Slurry stability of crystalline forms of p-toluenesulfonic acid salt in different water activity conditions (XRPD); conditions: for Resulting form 5° C. / Resulting form 25° C. / Resulting form 40° C.: slurry of Form 3 stirred 2-3 weeks; for Water activity in which the crystalline form is favoured: slurry experiments, values stated as 'about'
Experimental: (§1) XRPD measurements were performed with the X-ray powder diffractometer Bruker D8 Advance at room temperature, using a copper filled X-ray tube (40 kV×40 mA) as the X-ray source, CuKα (λ=1.5418 Å), a 0.6 mm divergence slit, 2.5° Soller slits on both the primary and secondary beams and the 1-dimensional LynxEye detector (with aperture angle of 2.91593°). Data collection was done in the range of 3.8-33° 2θ with 0.02° increments, at a scan speed of 0.3°/s.
Stability of the crystalline forms of p-toluenesulfonic acid salt in different water activity conditions was studied in slurry experiments where crystalline form 3 was stirred for 2-3 weeks at 5° C., 25° C. and 40° C. in mixtures of ethanol:water, acetonitrile (ACN):water, methanol: water and methanol alone. 0.5 ml of solvent was added to 25 mg of each sample. The resulting crystalline form was determined by XRPD.

[2] = Short-term physical stability of salts at 40° C./75% RH for 2 weeks (XRPD); conditions: determined by XRPD
Experimental: as §1
Short-term physical stability of various salts was studied by exposure at 40° C./75% RH for 2 weeks followed by measurement by XRPD.

[3] = Crystalline transformation of form 2 on drying; conditions: higher drying temperatures (than about 20-60° C., under reduced pressure)
Experimental: In a preferred method, crystalline form 2 is prepared in high polymorphic purity and in consistent manner by first dissolving compound (I) in a mixture of acetonitrile and water, where the amount of water is from about 5% to about 15%, preferably from 6% to 12%, per volume of the mixture. The amount of compound (I) is suitably from about 5 g to about 15 g, preferably from about 9 g to 13 g, for example, about 11 g, per 100 ml of the solvent. If desired, activated carbon, celite and/or triamine metal scavenger may also be added. The mixture may be heated, for example, to a temperature of about 50-80° C., more specifically to about 70-80° C. The mixture can be thereafter filtered. To the filtrate is then added p-toluenesulfonic acid monohydrate, for example, in about equivalent molar amount, under heating at a temperature of about 50-80° C., more specifically at about 70° C. The mixture may then be cooled to about 60° C. and seeded, if desired. The mixture can then be stirred in this temperature for about 1 h, followed by cooling, for example to about 0-20° C., more specifically to about 5° C., to precipitate the product. The crystalline form 2 can be washed, for example, with water, and dried at about 20-60° C., preferably at about 25-35° C., for example at about 30° C., under reduced pressure. […]

[4] = ACN:water 92.1:7.9, water activity 0.81
[5] = ACN:water 96.3:3.7, water activity 0.58
[6] = EtOH:water 30:70, water activity >0.9
[7] = EtOH:water 83:17, water activity 0.64
[8] = EtOH:water 92.8:7.2, water activity 0.40
[9] = EtOH:water 96.7:3.3, water activity 0.22
[10] = MeOH:water 36:64, water activity 0.83
[11] = MeOH:water 77:23, water activity 0.52
[12] = MeOH:water 90:10, water activity 0.30
[13] = MeOH:water 95.3:4.7, water activity 0.16

Compound: CS(=O)(=O)N1CCC(COc2coc(CN3Cc4ccc(C(F)(F)F)cc4C3)cc2=O)CC1 [Form 3, 5-((1-(methylsulfonyl)-piperidin-4-yl)methoxy)-2-((5-(trifluoromethyl)isoindolin-2-yl)methyl)-4H-pyran-4-one]
Stability of the crystalline form in the slurry conditions ([1]; slurry in solvent:water mixtures and methanol, 5-40° C., 2-3 weeks): unstable
Resulting form 5° C. [1, 4]: Form 2
Resulting form 25° C. [1, 4]: Form 2
Resulting form 40° C. [1, 4]: Form 2
Resulting form 5° C. [1, 5]: Form 2
Resulting form 25° C. [1, 5]: Form 2
Resulting form 40° C. [1, 5]: Form 2
Resulting form 5° C. [1, 6]: Form 2
Resulting form 25° C. [1, 6]: Form 2
Resulting form 40° C. [1, 6]: Form 2
Resulting form 5° C. [1, 7]: Form 2
Resulting form 25° C. [1, 7]: Form 2
Resulting form 40° C. [1, 7]: Form 2
Resulting form 5° C. [1, 8]: Form 1
Resulting form 25° C. [1, 8]: Form 1
Resulting form 40° C. [1, 8]: Form 1
Resulting form 5° C. [1, 9]: Form 1
Resulting form 25° C. [1, 9]: Form 1
Resulting form 40° C. [1, 9]: Form 1
Resulting form 5° C. ([1]; MeOH alone): Form 1
Resulting form 25° C. ([1]; MeOH alone): Form 1
Resulting form 40° C. ([1]; MeOH alone): Form 1
Resulting form 5° C. [1, 10]: Form 2
Resulting form 25° C. [1, 10]: Form 2
Resulting form 40° C. [1, 10]: Form 2
Resulting form 5° C. [1, 11]: Form 2
Resulting form 25° C. [1, 11]: Form 2
Resulting form 40° C. [1, 11]: Form 1
Resulting form 5° C. [1, 12]: Form 1
Resulting form 25° C. [1, 12]: Form 1
Resulting form 40° C. [1, 12]: Form 1
Resulting form 5° C. [1, 13]: Form 1
Resulting form 25° C. [1, 13]: Form 1
Resulting form 40° C. [1, 13]: Form 1

Compound: CS(=O)(=O)N1CCC(COc2coc(CN3Cc4ccc(C(F)(F)F)cc4C3)cc2=O)CC1 [2-Naphthalenesulphonic acid salt (form 1)] [5-((1-(methyl-sulfonyl)piperidin-4-yl)methoxy)-2-((5-(trifluoromethyl)isoindolin-2-yl)methyl)-4H-pyran-4-one]
Form after 2 weeks [2]: No change

Compound: CS(=O)(=O)N1CCC(COc2coc(CN3Cc4ccc(C(F)(F)F)cc4C3)cc2=O)CC1 [Hydrochloric acid salt (form 1), 5-((1-(methyl-sulfonyl)piperidin-4-yl)methoxy)-2-((5-(trifluoromethyl)isoindolin-2-yl)methyl)-4H-pyran-4-one]
Form after 2 weeks [2]: No change

Compound: CS(=O)(=O)N1CCC(COc2coc(CN3Cc4ccc(C(F)(F)F)cc4C3)cc2=O)CC1 [Hydrobromic acid salt (form 1), 5-((1-(methyl-sulfonyl)piperidin-4-yl)methoxy)-2-((5-(trifluoromethyl)isoindolin-2-yl)methyl)-4H-pyran-4-one]
Form after 2 weeks [2]: No change

Compound: CS(=O)(=O)N1CCC(COc2coc(CN3Cc4ccc(C(F)(F)F)cc4C3)cc2=O)CC1 [Benzenesulfonic acid salt (form 1), 5-((1-(methyl-sulfonyl)piperidin-4-yl)methoxy)-2-((5-(trifluoromethyl)isoindolin-2-yl)methyl)-4H-pyran-4-one]
Form after 2 weeks [2]: No change

More lines, main results first:

Form after 2 weeks [2]: No change
Compound: CS(=O)(=O)N1CCC(COc2coc(CN3Cc4ccc(C(F)(F)F)cc4C3)cc2=O)CC1 [Methanesulfonic acid salt (form 1), 5-((1-(methyl-sulfonyl)piperidin-4-yl)methoxy)-2-((5-(trifluoromethyl)isoindolin-2-yl)methyl)-4H-pyran-4-one]

Form after 2 weeks [2]: Form 1 + extra peaks
Compound: CS(=O)(=O)N1CCC(COc2coc(CN3Cc4ccc(C(F)(F)F)cc4C3)cc2=O)CC1 [Maleic acid salt (form 1), 5-((1-(methyl-sulfonyl)piperidin-4-yl)methoxy)-2-((5-(trifluoromethyl)isoindolin-2-yl)methyl)-4H-pyran-4-one]

Form after 2 weeks [2]: Form 3 + extra peaks
Compound: CS(=O)(=O)N1CCC(COc2coc(CN3Cc4ccc(C(F)(F)F)cc4C3)cc2=O)CC1 [Oxalic acid salt (form 3), 5-((1-(methyl-sulfonyl)piperidin-4-yl)methoxy)-2-((5-(trifluoromethyl)isoindolin-2-yl)methyl)-4H-pyran-4-one]

Form after 2 weeks [2]: No change
Compound: CS(=O)(=O)N1CCC(COc2coc(CN3Cc4ccc(C(F)(F)F)cc4C3)cc2=O)CC1 [Oxalic acid salt (form 2), 5-((1-(methyl-sulfonyl)piperidin-4-yl)methoxy)-2-((5-(trifluoromethyl)isoindolin-2-yl)methyl)-4H-pyran-4-one]

Form after 2 weeks [2]: No change
Compound: CS(=O)(=O)N1CCC(COc2coc(CN3Cc4ccc(C(F)(F)F)cc4C3)cc2=O)CC1 [Oxalic acid salt (form 4), 5-((1-(methyl-sulfonyl)piperidin-4-yl)methoxy)-2-((5-(trifluoromethyl)isoindolin-2-yl)methyl)-4H-pyran-4-one]

Form after 2 weeks [2]: Form 1 + extra peaks
Compound: CS(=O)(=O)N1CCC(COc2coc(CN3Cc4ccc(C(F)(F)F)cc4C3)cc2=O)CC1 [Oxalic acid salt (form 1), 5-((1-(methyl-sulfonyl)piperidin-4-yl)methoxy)-2-((5-(trifluoromethyl)isoindolin-2-yl)methyl)-4H-pyran-4-one]

Form after 2 weeks [2]: No change
Water activity in which the crystalline form is favoured ([1]; 5-40° C., 2-3 weeks, listed as crystalline form 1 of p-toluenesulfonic acid salt): up to 0.4
Compound: CS(=O)(=O)N1CCC(COc2coc(CN3Cc4ccc(C(F)(F)F)cc4C3)cc2=O)CC1 [p-Toluenesulfonic acid salt (form 1), 5-((1-(methylsulfonyl)-piperidin-4-yl)methoxy)-2-((5-(trifluoromethyl)isoindolin-2-yl)methyl)-4H-pyran-4-one]

Form after 2 weeks [2]: No change
Water activity in which the crystalline form is favoured ([1]; 5-40° C., 2-3 weeks, listed as Crystalline form 2 of p-toluenesulfonic acid salt): higher than 0.5
Compound: CS(=O)(=O)N1CCC(COc2coc(CN3Cc4ccc(C(F)(F)F)cc4C3)cc2=O)CC1 [p-Toluenesulfonic acid salt (form 2), 5-((1-(methylsulfonyl)-piperidin-4-yl)methoxy)-2-((5-(trifluoromethyl)isoindolin-2-yl)methyl)-4H-pyran-4-one]
Crystalline transformation on drying [3]: some transformation of crystalline form 2 into crystalline form 1
